Results taken from paper PMC9061853, “Luminescent bis(benzo[d]thiazolyl)quinoxaline: facile synthesis, nucleic acid and protein BSA interaction, live-cell imaging, biopharmaceutical research and cancer theranostic application” (RSC Advances, 2019).

Columns and labels:
[1] = Metabolic stability in human liver microsomes; format: in vitro ADME; conditions: for % Metabolism in 30 min: 0.5 μM, 0.5 mg ml^−1 protein, NADPH, 37 °C; for half-life at 0.5 μM: human, liver microsomes
Protocol: (§1) The in vitro metabolic rate of 7g was determined in liver microsomes and the intrinsic clearance (CLintr) was estimated. The study was conducted at 0.5 μM substrate concentration and microsomal protein concentration of 0.5 mg ml^−1. Metabolic stability study in the presence of microsomes and cofactor NADPH was performed at 37 °C, 60 rpm for 30 min time duration. NADPH free control incubation was performed simultaneously for 30 min to understand if there are any non-enzymatic metabolism related issues. […] Intrinsic clearance as given in Table 6, was calculated using eqn (8). ^†

[2] = Metabolic stability in dog liver microsomes; format: in vitro ADME; conditions: for % Metabolism in 30 min: 0.5 μM, 0.5 mg ml^−1 protein, NADPH, 37 °C; for half-life at 0.5 μM: dog, liver microsomes
Protocol: as §1

[3] = Metabolic stability in rat liver microsomes; format: in vitro ADME; conditions: for % Metabolism in 30 min: 0.5 μM, 0.5 mg ml^−1 protein, NADPH, 37 °C; for half-life at 0.5 μM: rat, liver microsomes
Protocol: as §1

[4] = target: T1, BSA (Bos taurus, UniProt P02769); assay: BSA binding study (tryptophan emission quenching); parameters: species or system bovine
T1 construct: purchased Himedia Chemical Limited
T1 sequence (P02769 25-607): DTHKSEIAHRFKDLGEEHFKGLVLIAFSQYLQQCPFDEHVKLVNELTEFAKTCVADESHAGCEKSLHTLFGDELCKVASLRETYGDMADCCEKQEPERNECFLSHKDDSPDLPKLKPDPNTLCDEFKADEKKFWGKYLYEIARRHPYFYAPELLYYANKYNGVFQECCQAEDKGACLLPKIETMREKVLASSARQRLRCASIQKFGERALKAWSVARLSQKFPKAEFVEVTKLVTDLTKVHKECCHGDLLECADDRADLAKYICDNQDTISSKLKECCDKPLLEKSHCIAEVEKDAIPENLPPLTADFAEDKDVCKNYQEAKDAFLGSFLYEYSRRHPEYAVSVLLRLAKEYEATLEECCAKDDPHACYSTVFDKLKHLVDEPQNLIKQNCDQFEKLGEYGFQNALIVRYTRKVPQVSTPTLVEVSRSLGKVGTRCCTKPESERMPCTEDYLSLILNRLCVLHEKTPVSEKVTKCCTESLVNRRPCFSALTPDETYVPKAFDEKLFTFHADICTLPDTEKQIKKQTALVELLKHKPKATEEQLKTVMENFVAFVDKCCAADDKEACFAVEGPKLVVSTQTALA
Protocol: Serum albumin has the capacity to bind with the ligands and helps in the uptake of the drug inside the cells. BSA is commonly used in this study because of its similar structural homology to HSA. […] A significant quenching of BSA fluorescence can be observed upon interaction with drug molecule.[27] The BSA solution of 3 μM concentration was titrated against 10–100 μM of the drug 7e upon excitation of 280 nm. […] The Stern–Volmer constant (KBSA), quenching constant (Kq), binding constant (K), a number of binding sites (n) were calculated from the eqn (5) and (6) (Fig. S4b and c ^†). The Kq values of the newly synthesized compounds were in the order of 10^12 M^−1 s^−1 which were higher enough than maximum scatter collision quenching constant (2.0 × 10^10 M^−1 s^−1) of BSA quenchers (Table 2).[28] High potency of these complexes in cancer cells may be attributed by the strong binding with serum albumin which overcomes the drug resistance by GSH. […]
BSA is a carrier protein that increases solubility of the drug in the blood by binding to it.
Fluorescence spectroscopy is an efficient method to study the interaction of the BSA with the compound by quenching mechanism. The binding of the complexes to the bovine serum albumin (BSA) were measured by tryptophan emission quenching study. The complex […]
solutions (0-60 μM) were gradually added to the solution of BSA (2 μM) in 5 mM Tris- […]
HCl/NaCl buffer (pH 7.2) and the quenching of the emission signals at 350 nm (λex = 295 […]
nm) were recorded. The emission intensity of BSA decreases gradually on increasing the […]
complex concentration. The quenching constant (KBSA) has been determined quantitatively by […]
using Stern-Volmer equation. Stern-Volmer plots of I0/I vs. [complex] were made using the […]
corrected fluorescence data taking into account the effect of dilution. Linear fit of the data […]
Where I0 and I are the emission intensities of BSA in the absence and in the presence of […]
quencher of concentration [Q], gave the quenching constant (K BSA) using Origin Pro 8.5 […]
software. kq is the quenching rate constant, τ0 is the average lifetime of the tryptophan in BSA […]
without quencher reported as 1 x 10-8 sec. The binding propensity of the quenchers with […]
respective serum proteins were expressed by Scatchard equation. For such static quenching […]
interaction, the binding constant (K) and the number of binding sites (n) can be determined […]
according to the Scatchard equation: […]
The linear fitting of the log (I0-I)/I vs. log [Q] plot gives values of n and K from slope and […]
2.8. Stability study, Solubility study, metabolic stability study, Caco-2 permeability study
%Nominal = Mean of calculated concentration of test samples ×100 ….(7) […]
Calculated concentration from calibration curve
CL = k × volume of reaction mixture (mL) … (8) […]
intr protein content (mg)

## COc1ccc2nc(COc3ccccc3-c3nc4ccccc4s3)c(COc3ccccc3-c3nc4ccccc4s3)nc2c1 [Compound 7g, 2,2'-((((6-methoxyquinoxaline-2,3-diyl)bis(methylene))bis(oxy))bis(2,1-phenylene))bis(benzo[d]thiazole)]
[1]; HLM set 1
  CLint: 28 μl per min per mg protein
  % Metabolism in 30 min: 35%
  half-life at 0.5 μM: 0.821 h
[1]; HLM set 2
  CLint: 25 μl per min per mg protein
  % Metabolism in 30 min: 38%
  half-life at 0.5 μM: 0.932 h
[2]; DLM set 1
  CLint: 18 μl per min per mg protein
  % Metabolism in 30 min: 21%
  half-life at 0.5 μM: 1.28 h
[2]; DLM set 2
  CLint: 12 μl per min per mg protein
  % Metabolism in 30 min: 14%
  half-life at 0.5 μM: 1.91 h
[3]; RLM set 1
  CLint: 4 μl per min per mg protein
  % Metabolism in 30 min: 12%
  half-life at 0.5 μM: 5.85 h
[3]; RLM set 2
  CLint: 14 μl per min per mg protein
  % Metabolism in 30 min: 19%
  half-life at 0.5 μM: 1.69 h

## Clc1cc2nc(COc3ccccc3-c3nc4ccccc4s3)c(COc3ccccc3-c3nc4ccccc4s3)nc2cc1Cl [Compound 7e]
[4]
  K BSA, Stern–Volmer quenching constant: 10200 M⁻¹
  K q, quenching rate constant: 1.02e+12 M⁻¹ s⁻¹
[4]; BSA 3 μM titrated with 10–100 μM drug, excitation 280 nm
  quenching of BSA fluorescence: more than 50%
[4]; Scatchard equation
  n, number of binding sites: 1.87
[4]; Scatchard equation, read-out: K, binding constant with BSA (converted)
  Kd: 3.82 mM
